From US7595330B2, “Benzimidazole thiophene compounds” (SmithKline Beecham Corporation, priority 2005, dated 2009)
Read-outs that look alike come from different tables or passages of the source.

Legend:
human plasma proteins = experiment: Protein binding to human plasma proteins using equilibrium dialysis; assay type: in vitro ADME; details: pH 7.4, equilibrium dialysis 6 h, 37° C.
Protocol: III. Determination of Protein Binding to Human Plasma Proteins Using Equilibrium Dialysis
96 Well Plate (High Throughput Dialysis): Stock solutions of compounds were spiked into human plasma at a target concentration of 2000 ng/mL. The mixture was inverted gently several times to insure homogeneity and triplicate 50 μL aliquots were collected to verify initial concentrations. Following assembly of dialysis plate (HTDialysis membrane strips, molecular weight cut off limit of 12,000-14,000 daltons), spiked plasma (150 μL) was placed in the donor compartment of the well and Phosphate Buffered Saline pH 7.4 (150 μL) in the receiver compartment. Eight wells were set up per compound and plasma type. Plate was placed in a 37° C. incubator on a plate shaker. Following the 6 h incubation period, the plate was removed. Single 50 μL aliquots from each donor and receiver compartment (per well) were analyzed. Sample analysis was by LC/MS/MS (results reported as Drug Peak Area/Internal Standard Peak Area ratios). Protein binding assay can also be performed using dialysis cells instead of HT Dialysis 96 well plates. In Table 1, % Protein Binding, +=>98%; ++=95-98%: +++=<95%.

[1] = High throughput solubility assay; assay type: physicochemical; details: aqueous buffer, pH 7.4, 0.05M phosphate buffer
Protocol: IV. High Throughput Solubility Assay
Two samples are prepared for each compound. One (the standard sample) contains the compound at a fixed concentration of 20 μM in an aqueous/organic mixed solvent cocktail. The other (the test sample) contains the compound at a maximum concentration of 200 μM in pH 7.4, 0.05M phosphate buffer and shaking for 24 h. The test sample is filtered by 0.45μ filter and then spun for 10 min to remove any undissolved solid. HPLC analyses are preformed on these samples. The peak areas are used for computing solubility.

H460 = experiment: Methylene blue growth inhibition assay, H460; assay type: cell-based; details: Homo sapiens
Protocol: (§1) II. Methylene Blue Growth Inhibition Assay—Inhibition of Cell Proliferation by PLK1 Inhibitors
(§2) Generally, exponentially growing cell lines of different tumor origins, cultured in appropriate media containing 10% fetal bovine serum at 37° C. in a 5% CO2 incubator were plated at low density (less than 2000 cells/well) in 96-well plates. […]. Seventy two hours post-treatment, cell numbers were determined using 100 μl per well of methylene blue (Sigma M9140) (0.5% in 50:50 Ethanol:water). Stain was incubated at room temperature for 30 minutes before plates were rinsed and dye solubilized in 1% N-lauroyl sarcosine, sodium salt, (Sigma L5125, in PBS) (further details of a methylene blue assay are described below). Plates were read on a microplate reader, measuring the OD at 620 nm.
(§3) . The data are shown in Table 1 below and represent a compilation of several different experiments, each performed using the general parameters outlined above, although minor variations may have been employed in some instances.
(§4) In one assay, normal human foreskin fibroblasts (HFF), human colon (HCT116, RKO), lung (H460, A549) and breast (MCF7) tumor cell lines were cultured in high glucose DMEM (Life Technologies) containing 10% fetal bovine serum (FBS) at 37° C. in a humidified 5% CO2, 95% air incubator. Cells were harvested using trypsin/EDTA, counted using a haemocytometer, and plated in 100 μL of culture media per well, at the following densities, in a 96-well tissue culture plate (Falcon 3075): HFF 5,000 cells/well, HCT116 3,000 cells/well, RKO 2,500 cells/well, H460 2,500 cells/well, A549 5,000 cells/well, MCF7 4,000 cells/well. The next day, compounds were diluted in low glucose DMEM containing 100 μg/mL gentamicin, at twice the final required concentration, from 10 mM stock solutions in DMSO. 100 μL/well of these dilutions were added to the 100 μL of media currently in the assay plates. Medium containing 0.6% DMSO was added to control wells. The final concentration of DMSO in all wells was 0.3%. Cells were incubated at 37° C., 5% CO2 for 72 h. Medium was removed by aspiration. Cell biomass was estimated by staining cells with 80 μL per well methylene blue (Sigma M9140, 0.5% in 50:50 ethanol:water), and incubation at room temperature for 30-60 min. Stain was removed by aspiration and the plates rinsed by immersion in water, then air-dried. To release stain from the cells, 100 μL of solubilization solution was added (1% N-lauroyl sarcosine, Sodium salt, Sigma L5125, in PBS), and plates were shaken gently for about 30 min. Optical density at 620 nm was measured on a microplate reader. Percent inhibition of cell growth was calculated relative to vehicle treated control wells. […].

[2] = tested on: normal human foreskin fibroblasts (HFF); experiment: Methylene blue growth inhibition assay, HFF; assay type: cell-based; details: Fibroblast, 72 h
Protocol: as §1, §2, §3, §4

HCT116 = experiment: Methylene blue growth inhibition assay, HCT116; assay type: cell-based; details: Homo sapiens
Protocol: as §1, §2, §3, §4

A549 = experiment: Methylene blue growth inhibition assay, A549; assay type: cell-based; details: Homo sapiens
Protocol: as §1, §2, §3, §4

MCF7 = experiment: Methylene blue growth inhibition assay, MCF7; assay type: cell-based; details: Homo sapiens
Protocol: as §1, §2, §3, §4

RKO = experiment: Methylene blue growth inhibition assay, RKO; assay type: cell-based; details: Homo sapiens, 72 h
Protocol: as §1, §2, §3, §4

PLK1 kinase domain = target: T1, PLK1 kinase domain (Homo sapiens, UniProt P53350); experiment: Assay for inhibition of PLK1 (SPA, 33P-ATP, biotinylated peptide substrate); assay type: biochemical; details: 1 μM ATP, 2 nM PLK1 kinase domain; read-out: PLK1 pIC50 (converted)
T1 construct: made in house; host or cells: baculovirus infected T. ni cells
Protocol: I. Assay for Inhibition of PLK1
All procedures were performed at 4° C. Cells were lysed in 50 mM HEPES, 200 mM NaCl, 50 mM imidazole, 5% glycerol; pH 7.5. The homogenate was centrifuged at 14K rpm in a SLA-1500 rotor for 1 h and the supernatant filtered through a 1.2 micron filter. The supernatant was loaded onto a Nickel chelating Sepharose (Amersham Pharmacia) column and washed with lysis buffer. Protein was eluted using 20%, 30% and 100% buffer B steps where buffer B is 50 mM HEPES, 200 mM NaCl, 300 mM imidazole, 5% glycerol; pH 7.5. Fractions containing PLK were determined by SDS-PAGE. Fractions containing PLK were diluted five-fold with 50 mM HEPES, 1 mM DTT, 5% glycerol; pH 7.5, then loaded on an SP Sepharose (Amersham Pharmacia) column. After washing the column with 50 mM HEPES, 1 mM DTT, 5% glycerol; pH 7.5, PLK was step eluted with 50 mM HEPES, 1 mM DTT, 500 mM NaCl; 5% glycerol; pH 7.5. PLK was concentrated using a 10 kDa molecular weight cutoff membrane and then loaded onto a Superdex 200 gel filtration (Amersham Pharmacia) column equilibrated in 25 mM HEPES, 1 mM DTT, 500 mM NaCl, 5% glycerol; pH 7.5. Fractions containing PLK were determined by SDS-PAGE. PLK was pooled, aliquoted and stored at −80° C. Samples were quality controlled using mass spectrometry, N-terminal sequencing and amino acid analysis.
B. Enzyme activity +/− inhibitors was determined as follows: All measurements were obtained under conditions where signal production increased linearly with time and enzyme. Test compounds were added to white 384-well assay plates (0.1 μL for 10 μL and some 20 μL assays, 1 μL for some 20 μL assays) at variable known concentrations in 100% DMSO. DMSO (1-5% final, as appropriate) and EDTA (65 mM in reaction) were used as controls.
Reaction Mix (10 or 20 μL) was quickly added to each well immediately following addition of enzyme via automated liquid handlers and incubated 1-1.5 h at 22° C. The 20 μL enzymatic reactions were stopped with 50 μL of stop mix (50 mM EDTA, 4.0 mg/ml Streptavidin SPA beads in Standard Dulbecco's PBS (without Mg^2+ and Ca^2+), 50 μM ATP) per well. The 10 μL reactions were stopped with 10 μL of stop mix (50 mM EDTA, 3.0 mg/mL Streptavidin-coupled SPA Imaging Beads (“LeadSeeker”) in Standard Dulbecco's PBS (without Mg^2+ and Ca^2+), 50 μM ATP) per well. Plates were sealed with clear plastic seals, spun at 500×g for 1 min or settled overnight, and counted in Packard TopCount for 30 seconds/well (regular SPA) or imaged using a Viewlux imager (LeadSeeker SPA). Signal above background (EDTA controls) was converted to percent inhibition relative to that obtained in control (DMSO-only) wells.

[3] = NCI-H460, methylene blue, 72 h, H460, read-out: H460 IC50
[4] = methylene blue, HFF normal fibroblasts, read-out: HFF IC50
[5] = HCT-116, methylene blue, 72 h, HCT116, read-out: HCT116 IC50
[6] = methylene blue, 72 h, A549, read-out: A549 IC50
[7] = methylene blue, 72 h, MCF7, read-out: MCF7 IC50
[8] = methylene blue, read-out: RKO IC50

T1 sequence (P53350 21-346): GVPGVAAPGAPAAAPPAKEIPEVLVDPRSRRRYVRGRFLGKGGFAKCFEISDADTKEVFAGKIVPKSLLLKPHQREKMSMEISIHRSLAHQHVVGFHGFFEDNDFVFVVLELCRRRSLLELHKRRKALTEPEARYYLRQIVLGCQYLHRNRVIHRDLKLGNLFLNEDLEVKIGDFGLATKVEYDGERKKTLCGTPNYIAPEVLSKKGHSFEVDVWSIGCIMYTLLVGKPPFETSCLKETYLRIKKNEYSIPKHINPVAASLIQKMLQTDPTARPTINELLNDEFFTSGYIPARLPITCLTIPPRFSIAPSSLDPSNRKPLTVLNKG

Row | Structure (SMILES) | fraction unbound at 6 h, 2000 ng/mL (human plasma proteins) | solubility at 24 h [1] [µM] | IC50 (H460; NCI-H460, 72 h, read-out: H460 IC50 (μM)) [µM] | IC50 ([2]; read-out: HFF IC50 (μM)) [µM] | IC50 (HCT116; HCT-116, 72 h, read-out: HCT116 IC50 (μM)) [µM] | IC50 (A549; A549, 72 h, read-out: A549 IC50 (μM)) [µM] | IC50 (MCF7; MCF7, 72 h, read-out: MCF7 IC50 (μM)) [µM] | IC50 (RKO; read-out: RKO IC50 (μM)) [µM] | IC50 (H460; [3]) [µM] | IC50 [2, 4] [µM] | IC50 (HCT116; [5]) [µM] | IC50 (A549; [6]) [µM] | IC50 (MCF7; [7]) [µM] | IC50 (PLK1 kinase domain) [nM] | IC50 (RKO; [8]) [µM]
1 | C[C@@H](Oc1cc(-n2cnc3ccc(OC4CCN(C)CC4)cc32)sc1C(N)=O)c1ccccc1Cl [Example 8, 3-{[(1R)-1-(2-Chlorophenyl)ethyl]oxy}-5-{6-[(1-methyl-4-piperidinyl)oxy]-1H-benzimidazol-1-yl}-2-thiophenecarboxamide] | > 0.05 | > 100 | – | – | – | – | – | – | – | – | – | – | – | – | –
2 | COc1cc2ncn(-c3cc(OC(C)c4ccccc4Cl)c(C(N)=O)s3)c2cc1OC (stereo not drawn) [Com. Ex 126, reference compound] | < 0.02 | – | < 0.1 | 0.1 to 1 | < 0.1 | < 0.1 | > 1 | < 0.1 | – | – | – | – | – | – | –
3 | C[C@@H](Oc1cc(-n2cnc3ccc(CS(C)(=O)=O)cc32)sc1C(N)=O)c1ccccc1Cl [Example 2, 3-{[(1R)-1-(2-Chlorophenyl)ethyl]oxy}-5-{6-[(methylsulfonyl)methyl]-1H-benzimidazol-1-yl}-2-thiophenecarboxamide] | 0.02 to 0.05 | 30 to 100 | – | – | – | – | – | – | < 0.1 | 0.1 to 1 | < 0.1 | < 0.1 | < 0.1 | < 10 | < 0.1
4 | C[C@@H](Oc1cc(-n2cnc3ccc(CN4CCN(C)CC4)cc32)sc1C(N)=O)c1ccccc1Cl [Example 4, 3-{[(1R)-1-(2-Chlorophenyl)ethyl]oxy}-5-{6-[(4-methylpiperazin-1-yl)methyl]-1H-benzimidazol-1-yl}thiophene-2-carboxamide] | – | > 100 | – | – | – | – | – | – | < 0.1 | < 0.1 | < 0.1 | < 0.1 | < 0.1 | < 10 | < 0.1
5 | C[C@@H](Oc1cc(-n2cnc3ccc(OC4CCNCC4)cc32)sc1C(N)=O)c1ccccc1Cl [Example 6, 3-{[(1R)-1-(2-Chlorophenyl)ethyl]oxy}-5-[6-(4-piperidinyloxy)-1H-benzimidazol-1-yl]-2-thiophenecarboxamide] | > 0.05 | > 100 | – | – | – | – | – | – | < 0.1 | 0.1 to 1 | < 0.1 | < 0.1 | – | < 10 | < 0.1
6 | CS(=O)(=O)c1ccc2ncn(-c3cc(OCc4ccccc4C(F)(F)F)c(C(N)=O)s3)c2c1 [Com. Ex 121, reference compound] | 0.02 to 0.05 | – | – | – | – | – | – | – | > 1 | > 1 | > 1 | > 1 | > 1 | 10 to 1000 | > 1
7 | C[C@@H](Oc1cc(-n2cnc3ccc(OC4CCN(C)CC4)cc32)sc1C(N)=O)c1ccccc1C(F)(F)F [Example 7, 5-{6-[(1-Methyl-4-piperidinyl)oxy]-1H-benzimidazol-1-yl}-3-({(1R)-1-[2-(trifluoromethyl)phenyl]ethyl}oxy)-2-thiophenecarboxamide] | > 0.05 | > 100 | – | – | – | – | – | – | – | – | – | – | – | – | –
8 | COc1cc2ncn(-c3cc(OC(C)c4ccccc4C(F)(F)F)c(C(N)=O)s3)c2cc1OC (stereo not drawn) [Com. Ex 127, reference compound] | < 0.02 | < 30 | – | – | – | – | – | – | < 0.1 | > 1 | 0.1 to 1 | < 0.1 | 0.1 to 1 | < 10 | < 0.1
9 | COc1cc2ncn(-c3cc(OCc4ccccc4C(F)(F)F)c(C(N)=O)s3)c2cc1OCCN1CCN(C)CC1 [Com. Ex 136, reference compound] | > 0.05 | – | – | – | – | – | – | – | 0.1 to 1 | > 1 | 0.1 to 1 | – | 0.1 to 1 | 10 to 1000 | 0.1 to 1
